Laboratory results published in patent publication US20090215805A1, “4-Heteroaryl Pyrimidine Derivatives and use thereof as Protein Kinase Inhibitors” (Cyclacel Limited, priority 2005, published 2009).

Columns and labels:
CDK2/E = CDK2/E (Homo sapiens, UniProt P24941); assay: CDK2/E in vitro kinase assay; type: biochemical
Protocol: (§1) The compounds of the invention above were investigated for their ability to inhibit the enzymatic activity of various protein kinases. This was achieved by measurement of incorporation of radioactive phosphate from ATP into appropriate polypeptide substrates. Recombinant protein kinases and kinase complexes were produced or obtained commercially. Assays were performed using 96-well plates and appropriate assay buffers (typically 25 mM β-glycerophosphate, 20 mM MOPS, 5 mM EGTA, 1 mM DTT, 1 mM […], pH 7.4), into which were added 2-4 μg of active enzyme with appropriate substrates. The reactions were initiated by addition of Mg/ATP mix (15 mM MgCl2+100 μM ATP with 30-50 kBq per well of [γ-^32P]-ATP) and mixtures incubated as required at 30° C. Reactions were stopped on ice, followed by filtration through p81 filterplates or GF/C filterplates (Whatman Polyfiltronics, Kent, UK). After washing 3 times with 75 mM aq orthophosphoric acid, plates were dried, scintillant added and incorporated radioactivity measured in a scintillation counter (TopCount, Packard Instruments, Pangbourne, Berks, UK). Compounds for kinase assay were made up as 10 mM stocks in DMSO and diluted into 10% DMSO in assay buffer. Data was analysed using curve-fitting software (GraphPad Prism version 3.00 for Windows, GraphPad Software, San Diego Calif. USA) to determine IC50 values (concentration of test compound which inhibits kinase activity by 50%).

GSK3 (GSK-3β) = GSK3 (GSK-3β) (Oryctolagus cuniculus, UniProt A0A5F9DUX8); assay: GSK-3 kinase assay; type: biochemical, rabbit; settings: in vitro kinase assay
Chain of GSK3 (GSK-3β) (A0A5F9DUX8 entry or part of it): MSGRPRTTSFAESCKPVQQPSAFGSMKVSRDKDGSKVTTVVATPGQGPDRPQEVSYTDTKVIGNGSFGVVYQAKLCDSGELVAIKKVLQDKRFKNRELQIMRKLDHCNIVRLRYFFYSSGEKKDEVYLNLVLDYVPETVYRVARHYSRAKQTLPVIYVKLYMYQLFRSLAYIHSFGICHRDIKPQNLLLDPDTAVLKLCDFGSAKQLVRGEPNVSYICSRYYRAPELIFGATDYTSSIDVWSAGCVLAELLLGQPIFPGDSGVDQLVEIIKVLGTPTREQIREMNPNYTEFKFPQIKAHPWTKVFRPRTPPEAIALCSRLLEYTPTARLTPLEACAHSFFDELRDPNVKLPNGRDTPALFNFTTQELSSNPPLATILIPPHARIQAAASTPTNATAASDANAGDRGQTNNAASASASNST
Protocol: GSK-3 was obtained from New England Biolabs (UK) Ltd., Hitchin, Herts. The recombinant enzyme was isolated from a strain of E. coli that carries a clone expressing GSK-3β derived from a rabbit skeletal muscle cDNA library [Wang, Q. M.; Fiol, C. J.; DePaoli-Roach, A. A.; Roach, P. J. J. Biol. Chem., 1994, 269, 14566]. Inhibition of GSK-3 function was assessed by measurement of phosphorylation of CREB phosphopeptide KRREILSRRPphosphoSYR in the presence of test compounds. Using a 96-well assay format, GSK3 (7.5 U) was incubated for 30 min at 30° C. in a total volume of 25 μL in 20 mM MOPS pH 7.2, 25 mM β-glycerophosphate, 5 mM EGTA, 1 mM DTT, 1 mM […], 40 μM CREB peptide, 15 mM MgCl2 and 100 μM ATP (containing 0.25 μCi [γ-^32P]-ATP) in the presence of varying concentrations of test compound. The samples were transferred to 96-well p81 filter plates (Whatman Polyfiltronics, Kent, UK), and the plates were washed 4 times with 200 μL/well of 75 mM aq orthophosphoric acid. Scintillation liquid (50 μL) was added to each well, and incorporated radioactivity for each sample was determined using a scintillation counter (TopCount, Packard Instruments, Pangboume, Berks, UK).

DM Aur A (Dm AK-A) = DM Aur A (Dm AK-A) (Drosophila melanogaster, UniProt Q9VGF9); assay: Dm aurora A kinase assay (DM Aur A / Dm AK-A); type: biochemical; settings: for Ki: in vitro kinase assay; for IC50: values without asterisk (DM aurora A)
Chain of DM Aur A (Dm AK-A) (Q9VGF9 entry or part of it): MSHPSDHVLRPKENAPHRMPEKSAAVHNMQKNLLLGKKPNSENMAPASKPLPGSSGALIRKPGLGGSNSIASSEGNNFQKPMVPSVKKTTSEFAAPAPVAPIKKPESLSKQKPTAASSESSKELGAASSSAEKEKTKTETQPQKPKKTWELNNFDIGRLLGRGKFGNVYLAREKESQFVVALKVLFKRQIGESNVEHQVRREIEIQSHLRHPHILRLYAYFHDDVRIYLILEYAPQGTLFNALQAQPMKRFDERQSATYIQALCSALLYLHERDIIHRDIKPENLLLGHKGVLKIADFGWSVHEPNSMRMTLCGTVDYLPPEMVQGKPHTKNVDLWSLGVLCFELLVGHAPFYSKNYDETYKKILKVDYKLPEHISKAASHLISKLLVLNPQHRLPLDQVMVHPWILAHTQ
Protocol: as §1

Human aurora kinase A = molecular target: T1, Human aurora kinase A (Homo sapiens, UniProt O14965); assay: Aurora-A (human) kinase assay; type: biochemical; settings: values marked *: Human aurora kinase A; read-out: Aur A IC50 (*Human aurora kinase A)
T1 construct: purchased Upstate, Dundee, UK
T1 sequence (O14965 1-403): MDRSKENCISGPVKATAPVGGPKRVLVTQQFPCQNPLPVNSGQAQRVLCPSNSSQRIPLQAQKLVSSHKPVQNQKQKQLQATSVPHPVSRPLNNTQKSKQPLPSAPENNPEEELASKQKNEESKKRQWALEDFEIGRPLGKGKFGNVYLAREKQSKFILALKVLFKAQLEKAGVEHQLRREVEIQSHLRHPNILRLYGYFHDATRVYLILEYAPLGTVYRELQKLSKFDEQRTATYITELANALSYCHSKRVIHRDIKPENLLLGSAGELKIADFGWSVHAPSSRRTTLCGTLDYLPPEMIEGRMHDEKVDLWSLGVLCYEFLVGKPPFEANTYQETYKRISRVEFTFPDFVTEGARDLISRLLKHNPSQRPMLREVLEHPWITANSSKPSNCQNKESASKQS
Protocol: This was achieved by measurement of incorporation of radioactive phosphate from ATP into Kemptide substrate (LRRASLG), upon phosphorylation by commercially obtained aurora-A (human, Upstate, Dundee, UK). Assays were performed using 96-well plates and appropriate assay buffers (20 mM Tris, 25 mM β-glycerophosphate, 5 mM EGTA, 1 mM DTT, 1 mM sodium vanadate, pH 7.5), into which were added 2-5 ng of active enzyme with 500 μM substrate (Kemptide). The reactions were initiated by addition of MgATP mix (15 mM MgCl2+100 μM ATP with 15-25 kBq per well of [γ-^32P]-ATP) and mixtures incubated for 30 min at 30° C. Reactions were stopped by addition of an equal volume of 75 mM aq orthophosphoric acid, followed by filtration through p81 filterplates (Whatman Polyfiltronics, Kent, UK). After washing 4 times with 75 mM aq orthophosphoric acid, plates were dried, scintillant added and incorporated radioactivity measured in a scintillation counter (TopCount, Packard Instruments, Pangbourne, Berks, UK). Compounds for kinase assay were made up as 10 mM stocks in DMSO and diluted into 10% DMSO in assay buffer. Data was analysed using curve-fitting software (XLfit version 4.0.2, IDBS, Guildford, Surrey, UK) to determine IC50 values (concentration of test compound which inhibits kinase activity by 50%).

SMILES	Ki (CDK2/E) [nM]	Ki (GSK3 (GSK-3β)) [nM]	Ki (DM Aur A (Dm AK-A)) [nM]	IC50 (DM Aur A (Dm AK-A)) [nM]	melting point [°C]	IC50 (Human aurora kinase A) [nM]
Cc1ccc([N+](=O)[O-])cc1Nc1nccc(-c2c(C)[nH]c(C#N)c2C)n1 [Compound 27]	> 10000	375	> 10000	≥ 10000		
COc1cc(Nc2nccc(-c3c(C)c[nH]c3C)n2)cc(OC)c1OC [Compound 56]	> 10000					
CCOC(=O)c1[nH]c(C)c(-c2ccnc(Nc3ccc(O)c([N+](=O)[O-])c3)n2)c1-c1ccccc1 [Compound 11]			278	712	202 to 205	
Cc1c[nH]c(C)c1-c1ccnc(Nc2ccc(N3CC(C)OC(C)C3)cc2)n1 (centres unmarked) [Compound 51]						230
CCOC(=O)c1[nH]c(C)c(-c2ccnc(Nc3cc(OC)c(OC)c(OC)c3)n2)c1C [Compound 58]	4700					
CCN(CC)CCNS(=O)(=O)c1ccc(Nc2nccc(-c3c(C)[nH]c(C#N)c3C)n2)cc1 [Compound 36]	12	14	307	786		
Cc1c[nH]c(C)c1-c1ccnc(Nc2ccc(C#N)cc2)n1 [Compound 1]		601	> 10000	≥ 10000		
Cc1[nH]cc(-c2ccccc2)c1-c1ccnc(Nc2cccc([N+](=O)[O-])c2)n1 [Compound 13]		208	335	859	201 to 203	
Cc1cc(Nc2nccc(-c3c(C)[nH]c(C#N)c3C)n2)cnc1Cl [Compound 33]		7	666	1700		
COCCOC(=O)c1[nH]c(C)c(-c2ccnc(Nc3ccc(N4CCOCC4)cc3)n2)c1-c1ccccc1 [Compound 37]			333	853		
Cc1[nH]c(C#N)c(C)c1-c1ccnc(Nc2ccc(N3CCN(Cc4ccccc4)CC3)cc2)n1 [Compound 40]			108	276		
Cc1[nH]c(CN(C)C)c(C)c1-c1ccnc(Nc2cccc([N+](=O)[O-])c2)n1 [Compound 17]	33	3270	40	102	88.3 to 92.6	
COc1cc(Nc2nccc(-c3c(C)[nH]c(C#N)c3C)n2)cc(OC)c1OC [Compound 52]	759					168
COc1cc(Nc2nccc(-c3c(C)c(C#N)n(C)c3C)n2)cc(OC)c1OC [Compound 53]	1120					125
CCOC(=O)c1[nH]c(C)c(-c2ccnc(Nc3cccc(O)c3)n2)c1-c1ccccc1 [Compound 7]			423		123.1 to 124.2	
CC(=O)N1CCN(c2ccc(Nc3nccc(-c4c(C)[nH]c(C#N)c4C)n3)cn2)CC1 [Compound 38]	310		69	177		
CCOC(=O)c1[nH]c(C)c(-c2ccnc(Nc3ccc(N4CCOCC4)c(OC)c3)n2)c1C [Compound 54]	> 10000					91
Cc1c[nH]c(C)c1-c1ccnc(Nc2cccc(C#N)c2)n1 [Compound 2]		3690	> 10000	≥ 10000		
CC(=O)N1CCN(c2ccc(Nc3nccc(-c4c(C)[nH]c(C#N)c4C)n3)cc2)CC1 [Compound 41]	308		19	48		
Cc1c[nH]c(C)c1-c1ccnc(Nc2ccc(N3CCOCC3)cc2)n1 [Compound 4]	1810		8	72		

SMILES	Ki (CDK2/E) [nM]	Ki (GSK3 (GSK-3β)) [nM]	Ki (DM Aur A (Dm AK-A)) [nM]	IC50 (DM Aur A (Dm AK-A)) [nM]	melting point [°C]	IC50 (Human aurora kinase A) [nM]
CCOC(=O)c1[nH]c(C)c(-c2ccnc(Nc3ccc(C(F)(F)F)cc3)n2)c1-c1ccccc1 [Compound 10]			> 10000	≥ 10000	227 to 230	
Cc1[nH]cc(-c2ccccc2)c1-c1ccnc(Nc2ccc(F)cc2)n1 [Compound 16]		45			196.6 to 198.1	
CC(=O)N1CCN(c2ccc(Nc3nccc(-c4c(C)c(C#N)n(C)c4C)n3)cn2)CC1 [Compound 39]			91	234		
Cc1cn(C)c(C)c1-c1ccnc(Nc2ccc(N3CCOCC3)c(Cl)c2)n1 [Compound 49]						531
COc1ccc(C)c(Nc2nccc(-c3c(C)[nH]c(C#N)c3C)n2)c1 [Compound 29]	> 10000	731	2520	6470		
COc1cc(Nc2nccc(-c3c(C)cn(C)c3C)n2)cc(OC)c1OC [Compound 57]	> 10000					
CNc1ccc(Nc2nccc(-c3c(C)[nH]c(C#N)c3C)n2)cc1C(F)(F)F [Compound 31]	119	53	49	125		
Cc1cn(C)c(C)c1-c1ccnc(Nc2ccc(N3CCOCC3)cc2)n1 [Compound 48]						222
Cc1cc(N2CCOCC2)ccc1Nc1nccc(-c2c(C)c[nH]c2C)n1 [Compound 50]						> 10000
CCOC(=O)c1[nH]c(C)c(-c2ccnc(Nc3cc(Cl)c(N4CCOCC4)c(Cl)c3)n2)c1C [Compound 47]						> 10000
Cc1c(-c2ccnc(Nc3ccc(N(C)C)cc3)n2)c(C)n(C)c1C#N [Compound 20]	538	11				
Cc1[nH]c(C#N)c(C)c1-c1ccnc(Nc2cccc(S(=O)(=O)NC(C)C)c2)n1 [Compound 34]	876	5	1300	3320		
Cc1[nH]cc(-c2ccccc2)c1-c1ccnc(Nc2ccc(O)cc2)n1 [Compound 15]		133	602	1540	194.1 to 195.6	
Cc1c[nH]c(C)c1-c1ccnc(Nc2cc(Cl)c(N3CCOCC3)c(Cl)c2)n1 [Compound 45]						> 10000
CCOC(=O)c1[nH]c(C)c(-c2ccnc(Nc3ccc(N4CCOCC4)c(Cl)c3)n2)c1C [Compound 46]						3030
COc1ccc(Nc2nccc(-c3c(C)c[nH]c3C)n2)cn1 [Compound 26]	861	167				
Cc1[nH]c(C#N)c(C)c1-c1ccnc(Nc2ccc(N3CCOCC3)cc2)n1 [Compound 24]	574	127				
CCOC(=O)c1[nH]c(C)c(-c2ccnc(Nc3cccc(F)c3)n2)c1-c1ccccc1 [Compound 8]			> 10000	≥ 10000	200 to 203	
Cc1c[nH]c(C)c1-c1ccnc(Nc2ccc(N3CCOCC3)c(Cl)c2)n1 [Compound 44]						261
CCOC(=O)c1[nH]c(C)c(-c2ccnc(Nc3ccc(N4CCOCC4)cc3)n2)c1C [Compound 43]			103	265		
